Where two headings read alike, the source gives them in different places.
B1: Construct 2260: mRNA construct, SEQ ID NO: 251, encodes modified human OTC protein of SEQ ID NO: 4 (nucleic acid)
sense: AGGAUUAUUACAUCAAAACAAAAAGCCGCCACCAUGCUGGUAUUCAACCUGCGCAUCCUGCUGAACAACGCCGCCUUCCGCAACGGCCACAACUUCAUGGUGCGCAACUUCCGCUGCGGCCAGCCCCUGCAGAACCGGGUGCAGCUGAAGGGCCGCGACCUGCUGACCCUGAAGAACUUCACCGGCGAGGAGAUCCGGUACAUGCUGUGGCUGAGCGCCGACCUGAAGUUCCGCAUCAAGCAGAAGGGCGAGUACCUGCCCCUGCUGCAGGGCAAGAGCCUGGGCAUGAUCUUCGAGAAGCGCAGCACCCGCACCCGCCUGAGCACCGAGACAGGCUUCGCCCUGCUGGGCGGCCACCCCUGCUUCCUGACCACCCAGGACAUCCACCUGGGCGUGAACGAGAGCCUGACCGACACCGCCCGCGUGCUGAGCAGCAUGGCCGACGCCGUGCUGGCCCGCGUGUACAAGCAGAGCGACCUGGACACCCUGGCCAAGGAGGCCAGCAUCCCCAUCAUCAACGGCCUGAGCGACCUGUACCACCCCAUCCAGAUCCUGGCCGACUACCUGACCCUGCAGGAGCACUACAGCAGCCUGAAGGGCCUGACCCUGAGCUGGAUCGGCGACGGCAACAACAUCCUGCACAGCAUCAUGAUGAGCGCCGCCAAGUUCGGCAUGCACCUGCAGGCCGCCACCCCCAAGGGCUACGAGCCCGACGCCAGCGUGACCAAGCUGGCCGAGCAGUACGCCAAGGAGAACGGCACCAAGCUGCUGCUGACCAACGACCCCCUGGAGGCCGCCCACGGCGGCAACGUGCUGAUCACCGACACCUGGAUCAGCAUGGGCCAGGAGGAGGAGAAGAAGAAGCGCCUGCAGGCCUUCCAGGGCUACCAGGUGACCAUGAAGACCGCCAAGGUGGCCGCCAGCGACUGGACCUUCCUGCACUGCCUGCCCCGCAAGCCCGAGGAGGUGGACGACGAGGUGUUCUACAGCCCCCGCAGCCUGGUGUUCCCCGAGGCCGAGAACCGCAAGUGGACCAUCAUGGCCGUGAUGGUGAGCCUGCUGACCGACUACAGCCCCCAGCUGCAGAAGCCCAAGUUCUGAGGUCUCUAGUAAUGAGCUGGAGCCUCGGUAGCCGUUCCUCCUGCCCGCUGGGCCUCCCAACGGGCCCUCCUCCCCUCCUUGCACCGGCCCUUCCUGGUCUUUGAAUAAAGUCUGAGUGGGCAGCAUCUAG

How the values were obtained:
[1] = In vivo tissue lipid clearance in Balb/c mice; design: species or system mouse; details: for half-life / concentration at 28 days / Tmax: Balb/c, mouse; for concentration at 28 days: 28 days post-dose; for ranking of lipid level by tissue / time post-dose by which lipid no longer detected in plasma: single IV bolus 1 mg/kg of the lipid formulation
Protocol: Additional studies were conducted to evaluate the in vivo tissue clearance profile of Lipid #7 and Lipid #3 in Balb/c mice. The clearance profiles in mouse tissue and plasma can be found in FIG. 25 (for Lipid #7) and FIG. 26 (for Lipid #3). All animals received a single intravenous bolus treatment of 1 mg/kg of the Lipid #7 formulation at a dosing volume of 10 mL/kg. Plasma, liver, kidney, and spleen were collected from mice (n=3 mice per timepoint) at 0, 2, 15, 30 minutes; 1, 2, 4, 6, 8, 12, 24, 48 hours; and 5, 7, 21, 28 days post-dose. All samples were analyzed for Lipid #7 concentrations.
All animals received a single intravenous bolus treatment of 1 mg/kg of the Lipid #3 formulation at a dosing volume of 10 mL/kg. Plasma was collected from mice (n=3 per timepoint) at 0.25, 1, 2, 4, 6, 12, 24, 120, and 168 hours post-dose. Liver, kidney, and spleen were collected from mice (n=3 per timepoint) at 0.033, 0.25, 1, 2, 4, 6, 12, 24, 120, and 168 hours; 1, 2, 3, 4-weeks post-dose. Heart, brain and lungs were collected from mice (n=3 per timepoint) at 0.25 hours; 1, 2-weeks post-dose. Only samples from 0.25 hrs to 1-week post-dose were analyzed for Lipid #3 tissue concentrations.

Spf/ash mice [2] = test: Urinary orotate levels in Spf/ash mice; format: in vivo, mouse; details: 1 mg/kg and 3 mg/kg IV
Protocol: Spf/ash mice received an IV injection with either PBS or lipid-formulated OTC-mRNA construct 1799.7 (5MeOU chemistry) at three different doses: 0.3 mg/kg, 1 mg/kg and 3 mg/kg. Urinary orotate levels were determined in untreated wild-type (WT) and both untreated and treated Spf/ash mice. A urinary orotate time course was performed in Spf/ash and WT mice, and urinary orotate levels were measured at each timepoint. The results can be seen in FIG. 12. Urinary orotate was normalized to creatinine, which is represented in the graph on the y-axis throughout the time course and served as a proof-of-concept of functional restoration of OTC activity post-injection.
Spf/ash mice received an IV injection with either PBS or lipid-formulated (as described in Example 1) OTC-mRNA at 1 mg/kg and 3 mg/kg. WT mice were included as an internal control. Urinary orotate levels were measured at 0, 1, 3, 7 and 14 days, and levels were normalized to creatinine (FIG. 16).

Spf/ash mice [3] = test: Western Blot of mitochondrial and cytosolic liver fractions of Spf/ash mice; format: in vivo, mouse
Protocol: Spf/ash mice received an IV injection with either PBS or lipid-formulated (as described in Example 1) OTC-mRNAs at 1 mg/kg and 3 mg/kg. WT mice were used as internal controls. Livers were harvested from the mice and sample fractionation was performed on the liver samples, separating the cytosolic and mitochondrial fractions. OTC levels were measured by Western Blot (WB) using human specific (hOTC) and crossreactive (crOTC) antibodies (FIG. 14). […] (CoxIV) was used as a mitochondrial control. OTC protein expression levels were measured by near-infrared fluorescent imaging systems and normalized to total protein.
Spf/ash mice received an IV injection with either PBS or lipid-formulated OTC-mRNAs at 3 mg/kg. WT mice were used as internal controls. Sample fractionation was performed on liver samples harvested from the mice, separating the cytosolic and mitochondrial fractions. OTC levels were measured by Western Blot using a human specific antibody. OTC protein expression levels were measured by near-infrared fluorescent imaging systems and both fractions, normalized to total protein, were plotted (FIG. 15). […] The 2260 compound includes a modified mitochondrial signaling peptide sequence provided herein.

[4] = kidney, 1 mg/kg IV, read-out: half-life, kidney (converted)
[5] = liver, 1 mg/kg IV, read-out: half-life, liver (converted)
[6] = plasma, 1 mg/kg IV, read-out: half-life, plasma (converted)

Molecule | half-life [1, 4] | concentration at 28 days ([1]; kidney, 1 mg/kg IV, read-out: lipid concentration in the kidney) | half-life [1, 5] | concentration at 28 days ([1]; liver, 1 mg/kg IV, read-out: lipid concentration in the liver) | half-life [1, 6] | concentration at 28 days ([1]; spleen, 1 mg/kg IV, read-out: lipid concentration in the spleen) | ranking of lipid level by tissue [1] | time post-dose by which lipid no longer detected in plasma [1] | tissue clearance assessment ([1]; 1 mg/kg IV) | detection in brain tissue ([1]; 1 mg/kg IV, either time point post-dose) | time post-dose through which concentrations persisted, all other tissues ([1]; 1 mg/kg IV, close to LLOQ) | time post-dose through which concentrations persisted, liver ([1]; 1 mg/kg IV, close to LLOQ) | Tmax ([1]; kidney, 1 mg/kg IV, read-out: Tmax, kidney) | Tmax ([1]; liver, 1 mg/kg IV, read-out: Tmax, liver) | Tmax ([1]; spleen, 1 mg/kg IV, read-out: Tmax, spleen) | half-life ([1]; spleen, 1 mg/kg IV, read-out: half-life, spleen (converted)) | dose dependence of urinary orotate reduction (Spf/ash mice [2]) | duration of reduced urinary orotate levels (Spf/ash mice [2]; measured at 0, 1, 3, 7 and 14 days) | targeting of expressed OTC to the mitochondria (Spf/ash mice [3]; 1 mg/kg and 3 mg/kg IV, liver fractions) | human OTC protein level in mitochondrial fraction (Spf/ash mice [3]; 3 mg/kg IV, liver, normalized to total protein)
CCCCCCCC(CCCCCCC)OC(=O)CCCN(CCCC(=O)OC(CCCCCCC)CCCCCCC)C(=O)SCCCN(C)C [Lipid #7] | 234 h | 2.34 ng/mL | 84 h | 17.2 ng/mL | 57 h | 18.4 ng/mL | liver>spleen>plasma>kidney | ≤ 14 days |  |  |  |  |  |  |  |  |  |  |  | 
CCCCCC/C=C\COC(=O)CCCCCN(CCCCCC(=O)OC(CCCCCCC)CCCCCCC)C(=O)SCCN(C)C [Lipid #3] | 19 h |  | 22 h |  | 0.45 h |  | liver>plasma>spleen>kidney>lung>heart>brain | ≤ 0.17 days | rapid tissue clearance | not detected in brain tissue | 120 h | 168 h | 0.033 to 1 h | 0.033 to 1 h | 1 to 2 h | 24 h |  |  |  | 
B1 |  |  |  |  |  |  |  |  |  |  |  |  |  |  |  |  | dose-dependent manner | up to 14 days | can efficiently target the mitochondria | delivers more human OTC than 2016 in the mitochondria

— patent publication US12351834B2, “Compositions and methods for the treatment of ornithine transcarbamylase deficiency” (Arcturus Therapeutics, Inc., priority 2020, dated 2025)
